Test in all cases: Cryopreservation success rate after dormancy induction in sugar-supplemented medium
The subject of one test is L. sp. Branson. In kind it is in vivo. Here is the method:
Lemna minor duckweed plants were cultured on Schenk and Hildebrandt media with 20 mg/ml sucrose at an aerial temperature of between 21° C. and 30° C. and light levels ranging from 200 μM·M^−2·sec^−1 to 450 μM·M^−2·sec^−1 for 1 day up to 1 year. Three frond colonies (each frond colony comprised one or more daughter fronds attached to the mother frond) were aseptically transferred into a 2.0-mL cryovial containing a 900 μL solution of Schenk and Hildebrandt media, […] step. The frond colonies were incubated in this sugar solution for 21-30 days. Each 24-hour photoperiod was comprised of fluctuations in temperature and light levels. Specifically, the daytime hours consisted of culturing the duckweed frond colony at an aerial temperature of 10° C. with a light level of about 25 μM·M^−2·sec^−1 to about 50 μM·M^−2·sec^−1 for a duration of 3 hours, followed by an aerial temperature of 15° C. at a light level of about 25 μM·M^−2·sec^−1 to about 75 μM·M^−2·sec^−1 for a duration of 6 hours, and an aerial temperature of 10° C. with a light level of about 25 μM^−2·sec^−1 to about 50 μM·M^−2·sec^−1 for a duration of 3 hours. During the nighttime hours of the 24-hour photoperiod, the duckweed frond colonies were cultured at an aerial temperature of 4° C. in the absence of light for a duration of 12 hours.
(§1) The duckweed frond colonies were dehydrated in a laminar flow hood in 900 μL of a cryoprotective solution, comprising 1.92 M DMSO, […], 3.26 M glycerol, and 0.4 M sucrose at pH 5.8. The cryovials were incubated in this solution at 4° C. for 30 minutes to 2 hours in the absence of light. Following the incubation, the cryoprotective solution was removed and replaced with 900 μL of fresh cryoprotective solution.
(§2) The duckweed frond colonies were frozen in a slow rate freezer according to the following freezing protocol. The cryovials containing the duckweed frond colonies were held at 4° C. and the temperature was lowered to −4° C. at 1° C. per minute, to −40° C. at 25° C. per minute, and then raised to −12° C. at 10° C. per minute. The temperature was again lowered to −40° C. at 1° C. per minute, to −90° C. at 10° C. per minute, and then lowered to −150° C. at 10° C. per minute. Once frozen, the vials containing the frond colonies were transferred to the vapor phase of liquid nitrogen for storage.
(§3) After up to 17 months in storage, the frozen duckweed frond colonies were thawed and recovered as follows. The vials containing the frozen duckweed frond colonies were transferred from the liquid nitrogen storage tank to a laminar flow hood and were thawed at room temperature for approximately ten minutes. The cryoprotective solution was removed and replaced with 900 μL of Schenk and Hildebrandt medium, supplemented with 1.2 M sucrose, followed by a ten minute incubation at room temperature. The 1.2 M sucrose was subsequently diluted by a series of five dilutions whereby 450 μL of the 1.2 M sucrose solution was removed and replaced with 450 μL of Schenk and Hildebrandt medium supplemented with 20 mg/ml sucrose. Following the serial dilutions, the frond colonies were transferred to a petri dish with Schenk and Hildebrandt medium, supplemented with 10 mg/ml sucrose and 1% (weight/volume) agar. The duckweed frond colonies were cultured at an aerial temperature of between 21° C. and 30° C. with light levels ranging from about 20 μM·M^−2·sec^−1 to about 100 μM·M^−2·sec^−1 for 7-14 days prior to calculating the success rate of the cryopreservation procedure.
The cryopreservation success rate was calculated by the total number of visible daughter fronds (or daughter fronds with viable tissue) to survive the freezing process and successfully reproduce new daughter fronds as a percentage of the total number of visible daughter fronds that were frozen. Viability of tissue or of daughter fronds was assessed by the presence of green tissue and the ability of these fronds or frond tissues to reproduce and generate new daughter fronds. […]

Another test concerns L. yungensis. It counts as in vivo, Lemna yungensis. The note with it: single sugars 90 mg/ml unless the label says 20 mg/ml, six sugar combo 15 mg/ml each.
The subject of a further test is BAP01-B2-230 line. It counts as in vivo, Lemna minor. How it is done:
(§4) Lemna minor duckweed plants were cultured on Schenk and Hildebrandt media with 20 mg/ml sucrose at an aerial temperature of between 21° C. and 30° C. and light levels ranging from […] for 1 day up to 1 year. Three frond colonies (each frond colony comprised one or more daughter fronds attached to the mother frond) were aseptically transferred into a 2.0-mL cryovial containing a 900 μL solution of Schenk and Hildebrandt media, supplemented with 15 mg/ml of each D-trehalose dihydrate, sucrose, D-sorbitol, D-raffinose pentahydrate, D-glucose, and D-mannitol for the dormancy-induction step. The frond colonies were incubated in this sugar solution for 21-30 days. Each 24-hour photoperiod was comprised of fluctuations in temperature and light levels. Specifically, the daytime hours consisted of culturing the duckweed frond colony at an aerial temperature of 10° C. with a light level of about 25 μM·M^−2·sec^−1 to about 50 μM·M^−2·sec^−1 for a duration of 3 hours, followed by an aerial temperature of 15° C. at a light level of about 25 μM·M^−2·sec^−1 to about 75 μM·M^−2·sec^−1 for a duration of 6 hours, and an aerial temperature of 10° C. with a light level of about 25 μM^−2·sec^−1 to about 50 μM·M^−2·sec^−1 for a duration of 3 hours. During the nighttime hours of the 24-hour photoperiod, the duckweed frond colonies were cultured at an aerial temperature of 4° C. in the absence of light for a duration of 12 hours.
as §1, §2, §3
(§5) The cryopreservation success rate was calculated by the total number of visible daughter fronds (or daughter fronds with viable tissue) to survive the freezing process and successfully reproduce new daughter fronds as a percentage of the total number of visible daughter fronds that were frozen. […]

For another test, the system named is L. minor. It counts as in vivo, Lemna minor. How it is done: as §4, §1, §2, §3, §5
The subject of the next test is Sp. polyrrhiza. It counts as in vivo, Spirodela polyrrhiza. The note with it: single sugars 90 mg/ml unless the label says 20 mg/ml, six sugar combo 15 mg/ml each.
The mark [1] stands for this setting: second set of experiments, single sugars 90 mg/ml unless the label says 20 mg/ml, six sugar combo 15 mg/ml each.
The mark [2] stands for this setting: sugars at two concentrations: 90 mg/ml (1X) and 270 mg/ml (3X), listed as Sucrose 1X.
Where [3] appears, read: sugars at two concentrations: 90 mg/ml (1X) and 270 mg/ml (3X), listed as Sucrose 3X.
The mark [4] stands for this setting: various concentrations of six sugar combination: total sugar 90 (1X), 216 (2.4X), 342 mg/ml (3.8X), or 20 mg/ml sucrose.

The structures appear in SMILES notation.

Take `OC[C@H]1O[C@@](CO)(O[C@H]2O[C@H](CO)[C@@H](O)[C@H](O)[C@H]2O)[C@@H](O)[C@@H]1O` [Sucrose, sucrose]: the Cryopreservation success rate is reported as 100% (23/23) in the test with L. sp. Branson (first set of experiments, single sugars 90 mg/ml unless the label says 20 mg/ml, six sugar combo 15 mg/ml each, in Schenk and Hildebrandt media during dormancy induction); 96% (24/25) in the test with L. sp. Branson (first set of experiments, single sugars 90 mg/ml unless the label says 20 mg/ml, six sugar combo 15 mg/ml each, in Schenk and Hildebrandt media during dormancy induction, listed as 20 mg/ml Sucrose); 87.5% (14/16) with L. sp. Branson (setting [1]); 88.2% (15/17) with L. sp. Branson (second set of experiments, single sugars 90 mg/ml unless the label says 20 mg/ml, six sugar combo 15 mg/ml each, listed as 20 mg/ml Sucrose); 100% (19/19) in the test with L. sp. Branson (setting [2]); 0% (0/14) with L. sp. Branson (setting [3]). For the same molecule, the Cryopreservation success rate was 100% (24/24) in the test on L. sp. Branson (setting [4]); 0% with L. yungensis (first set of experiments); 0% in the test with L. yungensis (second set of experiments); 100% (16/16) in the test on BAP01-B2-230 line (setting [2]); 0% (0/12) with BAP01-B2-230 line (setting [3]); 60.9% (14/23) in the test on BAP01-B2-230 line (setting [4]). Moreover, the Cryopreservation success rate with L. minor (dormancy induction 21-Day, fluctuating temperature and light) is listed as 93.75% (30/32); in the test on L. minor (first set of experiments, single sugars 90 mg/ml unless the label says 20 mg/ml, six sugar combo 15 mg/ml each) it was 36.8% (7/19); with L. minor (setting [1]), 91.7% (11/12); in the test on Sp. polyrrhiza (first set of experiments), 0% (0/10); with Sp. polyrrhiza (first set of experiments, listed as 20 mg/ml Sucrose), 0% (0/14); in the test on Sp. polyrrhiza (second set of experiments), 0% (0/12). Further, the “Cryopreservation success, in words” value in the test with L. minor (summary of Tables 6 and 7) is recorded as “lower cryopreservation success rates”.

Source of the values: patent US20120190004A1, “METHODS AND COMPOSITIONS FOR THE CRYOPRESERVATION OF DUCKWEED” (Biolex Therapeutics, Inc., priority 2009, published 2012).
